Results: patent publication US7459453B2, “Pyridazin-3(2H)-one derivatives as PDE4 inhibitors” (Laboratorios Almirall, S.A., priority 2002, dated 2008)
pIC50: −log10 of the molar value.

System: PDE4
Assay: PDE4 Assay Procedure ([3H]-cAMP SPA)
Type: biochemical
Settings: 15 nM [3H]-cAMP, SPA beads, 1 hour at room temperature; compounds tested from 10 μM to 10 pM
Method: Compounds to be tested were resuspended in DMSO at a stock concentration of 1 mM. The compounds were tested at different concentrations varying from 10 μM to 10 pM to calculate an IC50. These dilutions were done in 96-well plates. In some cases, plates containing diluted compounds were frozen before being assayed. In these cases, the plates were thawed at room temperature and stirred for 15 minutes.
Ten microliters of the diluted compounds were poured into a “low binding” assay plate. Eighty microliters of reaction mixture containing 50 mM Tris pH 7.5, 8.3 mM MgCl2, 1.7 mM EGTA, and 15 nM [3H]-cAMP were added to each well. The reaction was initiated by adding ten microliters of a solution containing PDE4. The plate was then incubated under stirring for 1 hour at room temperature. After incubation the reaction was stopped with 50 microliters of SPA beads, and the reaction was allowed to incubate for another 20 minutes at room temperatures before measuring radioactivity using standard instrumentation.
The reaction mixture was prepared by adding 90 ml of H2O to 10 ml of 10× assay buffer (500 mM Tris pH 7.5, 83 mM MgCl2, 17 mM EGTA), and 40 microliters 1 μCi/μL [3H]-cAMP. SPA beads solution was prepared by adding 500 mg to […] H2O for a final concentration of 20 mg/ml beads and 18 mM zinc sulphate.

Compound | pIC50
CCn1nc(-c2ccccc2)c(C(C)=O)c(Nc2ccccc2Cl)c1=O [Example 13, 5-Acetyl-4-[(2-chlorophenyl)amino]-2-ethyl-6-phenylpyridazin-3(2H)-one] | 8.03
CCn1nc(-c2ccc(SC)cc2)c(C(C)=O)c(Nc2ccc(C(=O)O)cc2)c1=O [Example 23, 4-({5-Acetyl-2-ethyl-6-[4-(methylthio)phenyl]-3-oxo-2,3-dihydropyridazin-4-yl}amino)benzoic acid] | 8.02
CCn1nc(-c2ccc([S+](C)[O-])cc2)c(C(C)=O)c(Nc2ccccc2C)c1=O (centres unmarked) [Example 31, 5-Acetyl-2-ethyl-4-[(2-methylphenyl)amino]-6-[4-(methylsulphinyl)phenyl]pyridazin-3(2H)-one] | 7.70
CCn1nc(-c2ccccc2)c(C(C)=O)c(Nc2cccc(C#N)c2)c1=O [Example 72, 3-[(5-Acetyl-2-ethyl-3-oxo-6-phenyl-2,3-dihydropyridazin-4-yl)amino]benzonitrile] | 8.22
CCn1nc(-c2cccc(Cl)c2)c(C(C)=O)c(Nc2ccc(C(=O)O)cc2)c1=O [Example 86, 4-[5-Acetyl-6-(3-chlorophenyl)-2-ethyl-3-oxo-2,3-dihydropyridazin-4-ylamino]benzoic acid] | 7.85
CCn1nc(-c2cccc(Cl)c2)c(C(C)=O)c(Nc2cccc(F)c2)c1=O [Example 88, 5-Acetyl-6-(3-chlorophenyl)-2-ethyl-4-[(3-fluorophenyl)amino]pyridazin-3(2H)-one] | 8.21
CCn1nc(-c2cccc(F)c2)c(C(C)=O)c(Nc2cccc(F)c2)c1=O [Example 91, 5-Acetyl-2-ethyl-4-[(3-fluorophenyl)amino]-6-(3-fluorophenyl)pyridazin-3(2H)-one] | 8.23
CC(=O)c1c(-c2ccccc2)nn(CC2CC2)c(=O)c1Nc1cc(F)cc(F)c1 [Example 109, 5-Acetyl-2-cyclopropylmethyl-4-(3,5-difluoro-phenylamino)-6-phenyl-2H-pyridazin-3-one] | 9.59
CCn1nc(-c2cccc(F)c2)c(C(C)=O)c(Nc2ccc(CO)cc2)c1=O [Example 176, 5-Acetyl-2-ethyl-6-(3-fluorophenyl)-4-{[4-(hydroxymethyl)phenyl]amino}pyridazin-3(2H)-one] | 7.72
CCn1nc(-c2ccccc2)c(C(C)=O)c(Nc2c(F)cc(F)cc2F)c1=O [Example 263, 5-Acetyl-2-ethyl-6-phenyl-4-[(2,4,6-trifluorophenyl)amino]pyridazin-3(2H)-one] | 7.82
CCn1nc(-c2ccccc2)c(C(C)=O)c(Nc2cc(F)c(F)c(F)c2)c1=O [Example 264, 5-Acetyl-2-ethyl-6-phenyl-4-[(3,4,5-trifluorophenyl)amino]pyridazin-3(2H)-one] | 7.96
CCn1nc(-c2ccccc2)c(C(=O)OCc2ccccc2)c(Nc2cccc(Cl)c2)c1=O [Example 274, Benzyl 5-[(3-chlorophenyl)amino]-1-ethyl-6-oxo-3-phenyl-1,6-dihydropyridazine-4-carboxylate] | 8.26

The next lines start with the values.

pIC50 | Compound
8.11 | CCn1nc(-c2ccccc2)c(C(C)=O)c(Nc2cccc(F)c2)c1=O [Example 1, 5-Acetyl-2-ethyl-4-[(3-fluorophenyl)amino]-6-phenylpyridazin-3(2H)-one]
8.70 | CCn1nc(-c2ccccc2)c(C(C)=O)c(Nc2cccc3ccccc23)c1=O [Example 8, 5-Acetyl-2-ethyl-4-(1-naphthylamino)-6-phenylpyridazin-3(2H)-one]
7.80 | CC(=O)c1c(-c2ccccc2)nn(C)c(=O)c1Nc1cc(F)cc(F)c1 [Example 39, 5-Acetyl-4-[(3,5-difluorophenyl)amino]-2-methyl-6-phenylpyridazin-3(2H)-one]
8.11 | CC(=O)c1c(-c2ccccc2)nn(CC2CC2)c(=O)c1Nc1cccc(F)c1 [Example 45, 5-Acetyl-2-(cyclopropylmethyl)-4-[(3-fluorophenyl)amino]-6-phenylpyridazin-3(2H)-one]
8.05 | CC(=O)c1c(-c2ccccc2)nn(CC2CC2)c(=O)c1Nc1cccc(Cl)c1 [Example 46, 5-Acetyl-4-[(3-chlorophenyl)amino]-2-(cyclopropylmethyl)-6-phenylpyridazin-3(2H)-one]
7.85 | CCn1nc(-c2ccccc2)c(C(C)=O)c(Nc2ccc(C(=O)O)cc2)c1=O [Example 50, 4-[(5-Acetyl-2-ethyl-3-oxo-6-phenyl-2,3-dihydropyridazin-4-yl)amino]benzoic acid]
7.92 | CCn1nc(-c2ccccc2)c(C(C)=O)c(Nc2cccc(Cl)c2)c1=O [Example 52, 5-Acetyl-4-[(3-chlorophenyl)amino]-2-ethyl-6-phenylpyridazin-3(2H)-one]
8.06 | CCn1nc(-c2cccc(F)c2)c(C(C)=O)c(Nc2cccc(Cl)c2)c1=O [Example 92, 5-Acetyl-4-[(3-chlorophenyl)amino]-2-ethyl-6-(3-fluorophenyl)pyridazin-3(2H)-one]
9.30 | CCn1nc(-c2cccc([N+](=O)[O-])c2)c(C(C)=O)c(Nc2cccc3ccccc23)c1=O [Example 97, 5-Acetyl-2-ethyl-4-(naphthalen-1-ylamino)-6-(3-nitrophenyl)pyridazin-3(2H)-one]
8.15 | CCn1nc(-c2ccccc2)c(C(=O)CCc2ccccc2)c(Nc2cccc(Cl)c2)c1=O [Example 120, 4-[(3-Chlorophenyl)amino]-2-ethyl-6-phenyl-5-(3-phenylpropanoyl)pyridazin-3(2H)-one]
7.60 | CCn1nc(-c2ccc(F)cc2)c(C(C)=O)c(Nc2ccc(CO)cc2)c1=O [Example 181, 5-Acetyl-2-ethyl-6-(4-fluorophenyl)-4-{[4-(hydroxymethyl)phenyl]amino}pyridazin-3(2H)-one]
8.03 | CCn1nc(-c2ccccc2)c(C(C)=O)c(Nc2ccc(F)c(Cl)c2)c1=O [Example 190, 5-Acetyl-4-[(3-chloro-4-fluorophenyl)amino]-2-ethyl-6-phenylpyridazin-3(2H)-one]
7.70 | CCn1nc(-c2ccccc2)c(C(C)=O)c(Nc2ccc(C#N)cc2)c1=O [Example 231, 4-[(5-Acetyl-2-ethyl-3-oxo-6-phenyl-2,3-dihydropyridazin-4-yl)amino]benzonitrile]
7.89 | CCn1nc(-c2ccccc2)c(C(C)=O)c(Nc2cccc(C(N)=O)c2)c1=O [Example 232, 3-[(5-Acetyl-2-ethyl-3-oxo-6-phenyl-2,3-dihydropyridazin-4-yl)amino]benzamide]
